Assays:
Human 11β HSD1 = target: T1, Human 11β HSD1 (Homo sapiens, UniProt P28845); assay: biochemical; type: biochemical; conditions: Lineweaver-Burke plot, RIA detection, buffer 3, 10 μg/well microsomal protein, 30 min (FIG. 20); read-out: apparent Km
T1 construct: human hepatic microsomes were obtained from XenoTech, product H0610/Lot 0210078; tissue XenoTech H0610/Lot 0210078; host or cells: human liver (hepatic microsomes)
Procedure: Standard Operating Procedure for the 11β-Hydroxysteroid Dehydrogenase Type 1 cortisol Radioimmunoassay (11β HSD1 Cortisol RIA).
30 mM Tris-HCL, pH 7.2 containing 1 mM EDTA.
50 mM Tris-HCL, pH 8, containing 0.1 M NaCl and 0.1% gelatin.
Prepare 10 mM stock solutions in 100% DMSO at 100 times the required assay concentration. Dilute into assay buffer 1 in 25. Also dilute neat DMSO 1 in 25 into assay buffer for controls.
Dilute this 1 in 50 into assay buffer.
Prepare NADPH as a 1.8 mg/ml solution in assay buffer.
Mix these 3solutions 1:1:1 to make a solution of sufficient volume for 25 μl additions to each sample. Add 0.5 μCi tritiated cortisone per 25 μl and mix the solution well.
Dilute stock 20 mg/ml solution 1 in 100 with assay buffer.
Dilute stock antibody solution to 17 μg/ml in antibody binding buffer.
Make a 20 mg/ml solution in antibody binding buffer and chill on ice.
To a u-bottom polypropylene 96 well plate add: • 25 μl compound dilution or diluted DMSO to controls, NSB's and blanks • 10 μl 1 mM GA in DMSO (enzyme stop solution) to blanks • 25 μl substrate mixture to all samples • 50 μl diluted microsomes to all samples • Incubate plate for 30 min at 37° C. shaking p0 Add 10 μl enzyme stop solution to all wells except the blanks • Add 100 μl antibody solution to all wells except the NSB's, add antibody binding buffer to these wells • Incubate at 37° C. for 1 h • Chill plate on ice for 15 min • Add 50 μl/well charcoal solution and mix with an 8-channel pipette (4-5 aspirations) • Chill the plate on ice • Centrifuge at 4° C., 2000×g for 15 min • Transfer 100 μl supernatant into an Optiplate, also add 25 μl substrate mixture to 2 empty wells to indicate counting efficiency • Add 200 μl Microscint-40 to all wells and count on a Topcount Radioimmunoassay
The 11β HSD1 enzyme assay was carried out following the standard operating procedure described above in u-bottom polypropylene 96 well plates or 1.5 ml Eppendorf tubes as indicated for each experiment. Subsequent to stopping the enzyme reaction, 100 μl antibody prepared in buffer 3 unless otherwise indicated was added to test samples and 100 μl buffer 3 was added to the NSB samples. The samples were incubated for 1 hour at 37° C. and the chilled on ice for 15 mins. Dextran coated charcoal (50 μl/sample) prepared to the indicated concentration in buffer 3 was added and the samples were mixed (vortex for tubes and aspiration 5 times with an 8-channel pipette for 96 well plates) and chilled for a further 10 min. The samples were centrifuged at 2000×g for 15 min at 4° C. to pellet the charcoal. Aliquots of the supernatant (100 μl) were transferred to an Optiplate and counted on the Topcount in 150-200 μl Microscint 40. In some experiments, aliquots of supernatant were transferred to scintillation vials and counted on the Tricarb LSC in 5 ml Ultima Gold scintillant.

[1] = target: T2, human hepatic microsomal 11β HSD1 (Homo sapiens, UniProt P28845); type: biochemical; conditions: Lineweaver-Burke plot, 10 μg microsomal protein, 30 min at 37° C., Buffer 1 (FIG. 6); read-out: apparent Km for cortisone
T2 construct: human hepatic microsomes were obtained from XenoTech, product H0610/Lot 0210078; tissue XenoTech H0610/Lot 0210078; host or cells: human liver (hepatic microsomes)
T2 sequence (P28845 whole entry): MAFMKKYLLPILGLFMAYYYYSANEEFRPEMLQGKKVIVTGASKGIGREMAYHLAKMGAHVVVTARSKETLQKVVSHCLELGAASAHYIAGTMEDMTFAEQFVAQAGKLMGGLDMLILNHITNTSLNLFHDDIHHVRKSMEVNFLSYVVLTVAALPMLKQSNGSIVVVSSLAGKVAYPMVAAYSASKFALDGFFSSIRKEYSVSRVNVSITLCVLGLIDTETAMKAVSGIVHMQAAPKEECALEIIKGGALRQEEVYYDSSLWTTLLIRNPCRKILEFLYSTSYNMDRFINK
Procedure: Assay of Human and Rat Hepatic Microsomal 11β-HSD1 Activity using a TLC Separation of Substrate from Product
The assay was carried out in Buffer 2 and the cortisone concentration used was 2 μM containing 0.5 μCi per incubation ^3H-cortisone. Rat and human hepatic microsomes were tested at concentrations ranging from 400 μg to 50 μg microsomal protein per incubation in a final incubation volume of 100 μl in glass tubes. Buffer was substituted for microsomal protein for blanks. Samples were incubated for 1 h in a shaking water bath at 37° C. and the assay was stopped by the addition of 1 ml ethyl acetate. To correct for recovery, 50 μl ^14C-cortisol (approximately 4000 DPM per tube) was added to the samples followed by 200 μl 0.05% CaCl2. […] The upper organic phase was removed into clean tubes and dried down. […] DPM were measured on a TriCarb liquid scintillation counter using a dual label programme. Recovery was determined from the DPM obtained in 50 μl ^14C-cortisol solution which was counted with the samples.
In the next test, the same assay method was followed except that only human hepatic microsomes were examined and the concentration range of these was from 3.7 μg per sample to 100 μg per sample. The samples were incubated for 60 min, 45 min, 30 min or 15 min in a shaking water bath at 37° C. and were stopped, extracted and the substrate and product were separated as detailed above. […]

T1 sequence (P28845 whole entry): as above

| melting point [°C] | Compound | further results |
| --- | --- | --- |
| 181 to 184 | CCCc1ccc(C(=O)Nc2ccc3c(c2)CCC3=O)cc1 |  |
| 150 to 153 | O=C(c1ccccc1)c1ccc(NC(=O)c2cc(Cl)ccc2Cl)cc1 |  |
| 97 to 99 | CCCc1ccc(C(=O)NCCc2cccs2)cc1 |  |
| 272 to 274 | CC1Nc2cc(NC(=O)c3ccc(-c4ccccc4)cc3)ccc2N1C (stereo not drawn) |  |
| 139 to 141 | COc1cccc(C(=O)Nc2ccc(C(=O)c3ccccc3)cc2)c1 |  |
| 152 to 154 | COc1cccc(C(=O)Nc2ccc(C(C)=O)cc2)c1 |  |
| 222 to 223 | COc1ccc(C(=O)Nc2ccc(C(C)=O)cc2)cc1 |  |
| 270 to 270.3 | CC1Nc2ccc(NC(=O)c3ccc(-c4ccccc4)cc3)cc2N1C (stereo not drawn) |  |
| 199 to 200 | CC(=O)c1ccc(NC(=O)c2cc(Cl)cc(Cl)c2)cc1 |  |

The remaining lines, values behind:

| Compound | melting point [°C] | further results |
| --- | --- | --- |
| Cc1nc2c(Cl)c(NC(=O)c3cc(Cl)ccc3Cl)ccc2s1 | 175 |  |
| C[C@]12CCC(=O)C=C1CC[C@@H]1[C@@H]2C(=O)C[C@@]2(C)[C@H]1CC[C@]2(O)C(=O)CO [cortisone, Cortisone] |  | Km (Human 11β HSD1): 0.7 µM; Km [1]: 0.66 µM |
| Cc1nc2c(Cl)c(NC(=O)c3cc(Cl)cc(Cl)c3)ccc2s1 | 252 to 253 |  |
| CCCc1ccc(C(=O)Nc2ccc3sc(C)nc3c2)cc1 | 148 to 149 |  |
| COc1ccc(C(=O)Nc2ccc3sc(C)nc3c2Cl)cc1 | 182 |  |
| Cc1nc2c(Cl)c(NC(=O)Cc3ccc(Cl)cc3)ccc2s1 | 227 to 229 |  |
| COc1ccc(CC(=O)Nc2ccc3sc(C)nc3c2Cl)cc1 | 173 to 174 |  |
| COc1cccc(CC(=O)Nc2ccc3sc(C)nc3c2Cl)c1 | 147 to 148 |  |
| COC(=O)c1cc2cc(NS(=O)(=O)c3cccc(Cl)c3C)ccc2o1 | 168 to 168.4 |  |
| Cc1nc2cc(NC(=O)c3cc(Cl)cc(Cl)c3)ccc2s1 | 194 |  |
| O=C(Nc1ccc(C(=O)c2ccccc2)cc1)c1ccc(-c2ccccc2)cc1 | 212 to 213 |  |
| COc1cccc(C(=O)Nc2ccc3sc(C)nc3c2Cl)c1 | 177 to 179 |  |
| O=C(NCCc1cccs1)c1ccc(-c2ccccc2)cc1 | 164 to 166 |  |
| CCCc1ccc(S(=O)(=O)NCc2ccccn2)cc1 | 109 |  |

Reference: patent US7230020B2, “11β-hydroxysteroid dehydrogenase inhibitors” (priority 2003, dated 2007)
